According to patent publication US20070072242A1, “Immunoassay method and kit to leucomalachite green and malachite green” (Randox Laboratories Limited, priority 2005, published 2007):

Legend:
[1] = tested on: Ig fraction of the antiserum raised to immunogen II (hapten A-BTG); assay: competitive ELISA microtiter plate assay, antiserum to immunogen II with conjugate I (hapten A-HRP); type: binding, sheep; conditions: for % CR (percentage cross-reactivity based on specificity to leucomalachite green) / IC50 (standard concentration which produces 50% B/B0): Conjugate I (hapten A-HRP); for IC50 (standard concentration which produces 50% B/B0): 37° C. 2 hours; for % B/B0 / A450: Conjugate I
Procedure: (§1) An aqueous solution of immunogen II was formulated with Freund's Complete Adjuvant (FCA) to form an emulsion consisting of 2 mg/ml immunogen in 50% (v/v) FCA. Three sheep were immunised with this emulsion (1° immunisation), 0.25 ml being intramuscularly injected at each of four sites in the rump of each animal. Subsequent immunizations (boosts) contained 1 mg/ml immunogen. All boosts were emulsified in 50% (v/v) Freund's Incomplete Adjuvant (FIA) and were administered in the same manner as the 1° immunisation, at monthly intervals for 1 year. Blood sampling took place 7 to 14 days after each boost. Each sample was processed to produce antiserum, which was further purified by caprylic acid and ammonium sulfate precipitation to yield an immunoglobulin (Ig) fraction. The Ig fraction was evaluated by competitive ELISA microtiter plate assay, as described in Example 12 below.
The wells of an enhanced binding 96 well polystyrene microtiter plate were coated with the Ig fraction of the antiserum raised to immunogen II (hapten A-BTG) (Example 8), diluted in 10 mM Tris, pH8.5 (125 μl/well). The appropriate antibody coating dilution was determined using standard ELISA checkerboard techniques. The plate was incubated for 2 hours at 37° C., washed 4 times with Tris buffered saline containing Tween 20 (TBST) and tapped dry. Standard solutions of leucomalachite green and malachite green were prepared in TBST at 0, 5, 10, 50, 100, 250, 500 and 1000 ng/ml, and 50 μl of each was added to the appropriate wells (FIG. 8).
75 μl of conjugate I (hapten A-HRP) (Example 9), diluted in Tris buffer (pH 7.2) containing EDTA, D-mannitol, sucrose, thimerosal and BSA, was added to each of the wells, as shown in FIG. 8. The appropriate dilution of conjugate was also determined using standard ELISA checkerboard techniques. The plate was incubated at 37° C. for 2 hours. Excess unbound conjugate was removed by washing 6 times over a 10 minute period with TBST. 125 μl of tetramethylbenzidine (TMB) substrate solution was added to each well of the plate that was then incubated for 15 to 20 minutes in the dark at room temperature. The reaction was terminated by addition of 125 μl 0.2M H2SO4 to each well. The absorbance was then measured at 450 nm using a microtiter plate reader.

[2] = tested on: Ig fraction of the antiserum raised to immunogen II (hapten A-BTG); assay: competitive ELISA microtiter plate assay, antiserum to immunogen II with Conjugate II (hapten C-HRP); type: binding, sheep; conditions: for % CR (percentage cross-reactivity based on specificity to leucomalachite green) / IC50 (standard concentration which produces 50% B/B0): Conjugate II (hapten C-HRP); for IC50 (standard concentration which produces 50% B/B0): 25° C. 1 hour; for % B/B0 / A450: Conjugate II
Procedure: as §1
The wells of an enhanced binding 96 well polystyrene microtiter plate were coated with the Ig fraction of the antiserum raised to immunogen II (hapten A-BTG) (Example 8), diluted in 10 mM Tris, pH8.5 (125 μl/well). The appropriate antibody coating dilution was determined using standard ELISA checkerboard techniques. The plate was incubated for 2 hours at 37° C., washed 4 times with Tris buffered saline containing Tween 20 (TBST) and tapped dry. […]
75 μl of conjugate C (hapten C-HRP) (Example 10), diluted in Tris buffer (pH 7.2) containing EDTA, D-mannitol, sucrose, thimerosal and BSA, was added to each of the wells, as shown in FIG. 8. The appropriate dilution of conjugate was also determined using standard ELISA checkerboard techniques.
The plate was incubated at 25° C. for 1 hour. Excess unbound conjugate was removed by washing 6 times over a 10-15 minute period with TBST.
125 μl of tetramethylbenzidine (TMB) substrate solution was added to each well of the plate that was then incubated for 20 minutes in the dark at room temperature. The reaction was terminated by addition of 100 ul 0.2 M H2SO4 to each well. The absorbance was then measured at 450 nm using a microtiter plate reader.

Bioo Kit antibodies = conditions: information provided by Bioo Scientific; kit designed to detect malachite green only; cited from earlier work
[3] = standard concentration 10 ng/ml
[4] = standard concentration 50 ng/ml
[5] = standard concentration 100 ng/ml
[6] = standard concentration 250 ng/ml
[7] = standard concentration 500 ng/ml
[8] = standard concentration 1000 ng/ml
[9] = standard concentration 0.5 ng/ml

## CN(C)c1ccc(C(c2ccccc2)c2ccc(N(C)C)cc2)cc1 [Leucomalachite Green, leucomalachite green]
[1]
  % CR (percentage cross-reactivity based on specificity to leucomalachite green): 100%
  IC50 (standard concentration which produces 50% B/B0): 0.02733 µg/mL
[1]; standard concentration 5 ng/ml
  % B/B0: 76.0%
  A450: 1.378
[1]; [3]
  % B/B0: 67.5%
  A450: 1.225
[1]; [4]
  % B/B0: 42.0%
  A450: 0.762
[1]; [5]
  % B/B0: 30.2%
  A450: 0.547
[1]; [6]
  % B/B0: 20.2%
  A450: 0.366
[1]; [7]
  % B/B0: 13.6%
  A450: 0.247
[1]; [8]
  % B/B0: 9.8%
  A450: 0.178
[2]
  % CR (percentage cross-reactivity based on specificity to leucomalachite green): 100%
  IC50 (standard concentration which produces 50% B/B0): 0.00374 µg/mL
[2]; [9]
  % B/B0: 90%
  A450: 1.550
[2]; standard concentration 1 ng/ml
  % B/B0: 77%
  A450: 1.323
[2]; standard concentration 5 ng/ml
  % B/B0: 45%
  A450: 0.772
[2]; [3]
  % B/B0: 31%
  A450: 0.538
[2]; [4]
  % B/B0: 11%
  A450: 0.184
Bioo Kit antibodies
  cross-reactivity: 1%

## CN(C)c1ccc(C(=C2C=CC(=[N+](C)C)C=C2)c2ccccc2)cc1 [Malachite Green, malachite green]
[1]
  % CR (percentage cross-reactivity based on specificity to leucomalachite green): 26.43%
  IC50 (standard concentration which produces 50% B/B0): 0.10339 µg/mL
[1]; standard concentration 5 ng/ml
  % B/B0: 85.2%
  A450: 1.440
[1]; [3]
  % B/B0: 82.3%
  A450: 1.392
[1]; [4]
  % B/B0: 63.6%
  A450: 1.075
[1]; [5]
  % B/B0: 51.4%
  A450: 0.869
[1]; [6]
  % B/B0: 39.3%
  A450: 0.664
[1]; [7]
  % B/B0: 30.8%
  A450: 0.520
[1]; [8]
  % B/B0: 24.6%
  A450: 0.416
[2]
  % CR (percentage cross-reactivity based on specificity to leucomalachite green): 26.8%
  IC50 (standard concentration which produces 50% B/B0): 0.013962 µg/mL
[2]; [9]
  % B/B0: 95%
  A450: 1.611
[2]; standard concentration 1 ng/ml
  % B/B0: 89%
  A450: 1.504
[2]; standard concentration 5 ng/ml
  % B/B0: 67%
  A450: 1.137
[2]; [3]
  % B/B0: 57%
  A450: 0.967
[2]; [4]
  % B/B0: 29%
  A450: 0.497
[2]; [5]
  % B/B0: 20%
  A450: 0.342
[2]; [6]
  % B/B0: 13%
  A450: 0.227
[2]; [7]
  % B/B0: 11%
  A450: 0.184
[2]; [8]
  % B/B0: 7%
  A450: 0.113
